{
  "source": "patent US20250108119A1",
  "about": "“NOVEL STEROID PAYLOADS, STEROID LINKERS, ADCs CONTAINING AND USE THEREOF” (IMMUNEXT, INC., priority 2021, published 2025)",
  "key": {"[1]": {"system": "peritoneal resident macrophages (PRM)", "test": "In vivo treatment/ex vivo PRM activation, TNFα and IL-6 in supernatant", "design": "species or system hVISTA mice", "conditions": "linker/payloads as anti-VISTA conjugates", "description": "Based thereon we developed a model to allow us to evaluate long-term anti-inflammatory impact of ADC on specific target populations, such as PRMs. […] In the absence of GC treatment, after 2h PRMs become highly activated as shown by increases in cytokine production. […] The objective of these studies was to evaluate the efficacy and pharmacodynamic range of INX human VISTA antibodies conjugated to a glucocorticoid payload as compared to free Dex.\nAfter euthanasia, mice were injected in the peritoneal cavity with 7 ml of PBS/0.5% BSA/2 mM EDTA. After a brief massage of the peritoneum, a small incision was performed and the peritoneal lavage collected. PRM were isolated using negative selection (Miltenyi kit, ref 130-110-434). Spleen were dissected and dissociated mechanically; monocytes were isolated using […] (Stem Cell, EasySep™ Mouse CD11b Positive Selection Kit II).\nPRMs were resuspended in RPMI 1640 with 10% FBS, 10 mM Hepes, Penicillin/Streptomycin and glutamine and 100,000 cells were plated per well in a 96-well tissue culture plate. Supernatants were collected at 2 and 24h post plating and stored at −80° C. […]\n• BioLegend (cat #430904) ELISA MAX Deluxe Set Mouse TNF-α • BioLegend (cat #431304) ELISA MAX Deluxe Set Mouse IL-6\nELISAs were conducted following the manufacturer's included protocol."}, "[2]": {"system": "LPS stimulated human PBMCs", "test": "LPS stimulated human PBMC, IL-1β and IL-6 ELISA", "assay_type": "cell-based", "summary_of_the_method": "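Human PBMC (1-2 healthy donors), 150,000 cells/well, treated with test agents at 1,000 nM down to 1 nM or 0.2 nM, in duplicate. LPS at 1 ng/ml added immediately after free payload or 4 h after conjugates; IL-1β and IL-6 in supernatants measured by ELISA.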"}, "FKBP5 [3]": {"system": "FKBP5", "test": "FKBP5 transcription in peritoneal resident macrophages (PRM) and spleen cells after in vivo treatment", "design": "species or system hVISTA mice", "conditions": "linker payloads as anti-VISTA conjugates"}, "human PBMC [4]": {"system": "human PBMC", "test": "Identification and quantification of released payload in human PBMC (MS)", "assay_type": "in vitro ADME", "conditions": "4 hrs, same antibody", "description": "In all the following experiments, human PBMC, isolated from 1 healthy donor per study, were treated with exemplary anti-VISTA glucocorticoid conjugates according to the invention to allow identification and quantification of the released payload.\nIn the present experiments, after incubating PBMC with glucocorticoid (GC) antibody drug conjugates (ADC) for 4h, cells were harvested and assessed for both FKBP5 transcription induction via quantitative real time PCR (qPCR) as well as assessed via mass spectrometry (MS) for released payload identification and quantification.\nIsolated PBMCs were resuspended in RPMI 1640 containing 10% human AB serum, 10 mM Hepes, 1× Penicillin/Streptomycin/L-Glutamine (assay media).\nPBMCs from 1 donor were washed 2× in PBS, and then resuspended at 1×10^7/mL in media. […]\nRemaining cells for each treatment were dived into aliquots representing 50 million cells per aliquot (for metabolite quantification only one aliquot per condition was generated). […]\nMedia was removed from each cell pellet with the media then set aside at −80C until it could be assessed for the concentration of effluxed payload. […]\nBriefly, pre-chilled 70% ACN (extraction buffer) was added to the PBMC pellets for extraction. […] was injected onto the LCMS (Luna C18 (2) column, Thermo Scientific Q Exactive Hybrid Quadrupole Orbitrap) and resulting masses assessed. […]"}, "human PBMC [5]": {"system": "human PBMC", "test": "Cytokine production (IL-1β, IL-6) at 24 hr by human PBMC incubated with 1 ng/mL LPS", "assay_type": "cell-based", "conditions": "free steroid payloads, serial dilutions, 1 ng/mL LPS, 24 hr", "summary_of_the_method": "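Human PBMC were stimulated with 1 ng/mL LPS together with serial dilutions of steroid payloads or glucocorticoid conjugates, spanning up to 8,000 nM down to 0.032 nM depending on the series. IL-1β and IL-6 were measured at 24 hr from technical duplicates, with 1-2 donors. Values above the ULOQ were extrapolated.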"}, "FKBP5 [6]": {"system": "FKBP5", "test": "FKBP5 transcription in isolated human monocytes, B cells and Tregs", "assay_type": "cell-based", "excerpt": "Monocytes or B cells were isolated from healthy donor blood samples and treated with free steroid, anti-VISTA conjugated steroid, or conjugated isotype control. RNA was isolated, and change in FKBP5 transcript level assessed by qPCR.\nThe various immune populations were isolated using different cell isolation kits and following manufacturer instructions: • EasySep Human monocyte enrichment kit without CD16 depletion (StemCell cat #19058) • Pan B cell isolation kit, human (Miltenyi Biotec, 130-101-638). • EasySep™ Human CD4+CD127 low CD49d-regulatory T cell enrichment Kit (StemCell cat #19232)\nMonocytes, B cells or Tregs were plated (from single donors) at 2×10^6 cells per well in a 12-well plate in RPMI, 10% human AB serum, 10 mM Hepes, 1× Penicillin/Streptomycin/Glutamine.\nFor single dose experiments, cells were treated with 20 nM free J payload or INX-SM-3 payload or the molar payload equivalent of huIgG1si J, INX201J or INX231P (the linked form of INX-SM-3). […]\nAfter one wash with PBS, RNA was isolated from cell pellets using either the RNeasy Plus Mini kit (Qiagen, PN: 74136) or NucleoSpin RNA Plus (Macherey-Nagel #740984.250). […] RNA concentration was assessed by UV spectroscopy using a Nanodrop 2000. […]\nQuantitative Real-Time PCR was done using Taqman master mix 2× kit (#4369016) and run on a QuantStudio3 from Applied Biosystem. […]"}, "[7]": {"test": "Linker payload and released payload in serum and peripheral blood leukocytes (MS)", "assay_type": "in vivo, cynomolgus monkey", "conditions": "INX234P 15 mg/Kg i.v., analyte as labelled", "description": "MS quantification was performed by Quintara Discovery on cell pellets and on serum.\nBriefly, cell pellets were suspended with 100 μL of 20% methanol.\nNormalization of the data to cell volume (ng/ml) was done by first calculating the cell numbers based on the PBL or WBC hematological count and the fixed volume for each sample processed for MS. We then converted to volume by using the arbitrary mean corpuscular volume (MCV) of […] per cell that is the most frequently adopted (3).\nEach plasma sample was extracted with acetonitrile: methanol containing internal standard (Verapamil)."}},
  "note": "“Also recorded” adds a separate entry of the source.",
  "data": [
    {"smiles": "C[C@]12C=CC(=O)C=C1CC[C@@H]1[C@@H]2[C@@H](O)C[C@@]2(C)[C@H]1C[C@H]1O[C@@H](c3ccc(CC4CC5(C4)CC(NC(=O)[C@H](CC(N)=O)NC(=O)CNC(=O)CBr)C5)cc3)O[C@]12C(=O)CO", "note": "(stereo partly drawn) [INX A11, (S)-2-(2-(2-bromoacetamido)acetamido)-N1-(6-(4-((6aR,6bS,7S,8aS,8bS,10R,11aR,12aS,12bS)-7-hydroxy-8b-(2-hydroxyacetyl)-6a,8a-dimethyl-4-oxo-2,4,6a,6b,7,8,8a,8b,11a,12,12a,12b-dodecahydro-1H-naphtho[2′,1′:4,5]indeno[1,2-d][1,3]dioxol-10-yl)benzyl)spiro[3.3]heptan-2-yl) succinamide]", "values": [
      {"measurement": "controlling cytokine response in PRM when dosed 14 days early (conclusions)", "setting": "[1]", "value": "significant potency in controlling cytokine response in PRM when dosed 14 days early"},
      {"measurement": "potency of conjugated linker payloads over INX J (conclusions)", "setting": "[2]", "value": "enhanced potency"},
      {"measurement": "FKBP5 induction when dosed 14 days early (conclusions)", "setting": "FKBP5 [3]", "value": "still display significant potency when dosed 14 days early in regard to FKBP5 induction"}
    ]},
    {"smiles": "C[C@]12C=CC(=O)C=C1CC[C@@H]1[C@@H]2[C@@H](O)C[C@@]2(C)[C@H]1C[C@H]1O[C@@H](c3ccc(CC45CC(NC(=O)[C@H](CCC(=O)O)NC(=O)CNC(=O)CBr)(C4)C5)cc3)O[C@]12C(=O)CO", "note": "[INX P, (S)-4-(2-(2-bromoacetamido)acetamido)-5-((3-(4-((6aR,6bS,7S,8aS,8bS,10R,11aR,12aS,12bS)-7-hydroxy-8b-(2-hydroxyacetyl)-6a,8a-dimethyl-4-oxo-2,4,6a,6b,7,8,8a,8b,11a,12,12a,12b-dodecahydro-1H-naphtho[2′,1′:4,5]indeno[1,2-d][1,3]dioxol-10-yl)benzyl)bicycle[1.1.1]pentan-1-yl)amino)-5-oxopentanoic acid]", "values": [
      {"measurement": "potency in PRM cytokine model when dosed 7 days early (conclusions)", "setting": "[1]", "value": "show similar potency when dosed 7 days early"},
      {"measurement": "released payload relative to INX J / INX231J", "setting": "human PBMC [4]", "value": "~3", "unit": "×"}
    ]},
    {"smiles": "C[C@]12C=CC(=O)C=C1CC[C@@H]1[C@@H]2[C@@H](O)C[C@@]2(C)[C@H]1C[C@H]1O[C@@H](c3ccc(CC45CC(N)(C4)C5)cc3)O[C@]12C(=O)CO", "note": "[INX-SM-3, (6aR,6bS,7S,8aS,8bS,10R,11aR,12aS,12bS)-10-(4-((3-aminobicyclo[1.1.1]pentan-1-yl)methyl)phenyl)-7-hydroxy-8b-(2-hydroxyacetyl)-6a,8a-dimethyl-1,2,6a,6b,7,8,8a,8b,11a,12,12a,12b-dodecahydro-4H-naphtho[2′,1′:4,5]indeno[1,2-d][1,3]dioxol-4-one]", "values": [
      {"measurement": "inhibition of IL-1β production", "setting": "human PBMC [5]", "value": "inhibit; also recorded: robust inhibition"},
      {"measurement": "inhibition of IL-6 production", "setting": "human PBMC [5]", "value": "inhibit"},
      {"measurement": "inhibition of IL-1β and IL-6 production", "setting": "[2]; Experiment 1: free payload 1000-1 nM, 1 ng/ml LPS, 24 hr, n=1 donor", "value": "inhibit both IL-1β and IL-6 production; also recorded: the most potent compound among these three"},
      {"measurement": "inhibition of IL-1β production", "setting": "[2]; Experiment 2: free payload 1000-1 nM, 24 hr, n=1 donor", "value": "show inhibition in IL-1β production; also recorded: again the most potent compound among these compounds tested"},
      {"measurement": "inhibition of IL-1β production", "setting": "[2]; Experiment 8: free payload 1000-0.5 nM", "value": "robust inhibition in IL-1B production"},
      {"measurement": "FKBP5 transcription in Tregs", "setting": "FKBP5 [6]; Experiment 3: 20 nM payload, 2 donors", "value": "lead to increased FKBP5 transcription"}
    ]},
    {"smiles": "C[C@]12C=CC(=O)C=C1CC[C@@H]1[C@@H]2[C@@H](O)C[C@@]2(C)[C@H]1C[C@H]1O[C@@H](c3ccc(CC45CC(NC(=O)[C@H](CCC(=O)O)NC(=O)CNC(=O)CSC[C@H](N)C(=O)O)(C4)C5)cc3)O[C@]12C(=O)CO", "note": "[P-cys, (S)-4-(2-(2-(((R)-2-amino-2-carboxyethyl)thio)acetamido)acetamido)-5-((3-(4-((6aR,6bS,7S,8aS,8bS,10R,11aR,12aS,12bS)-7-hydroxy-8b-(2-hydroxyacetyl)-6a,8a-dimethyl-4-oxo-2,4,6a,6b,7,8,8a,8b,11a,12,12a,12b-dodecahydro-1H-naphtho[2′,1′:4,5]indeno[1,2-d][1,3]dioxol-10-yl)benzyl)bicyclo[1.1.1]pentan-1-yl)amino)-5-oxopentanoic acid]", "values": [
      {"measurement": "serum level by day 8 (192 hr) post injection", "setting": "[7]", "value": "below detection"},
      {"measurement": "time of peak concentration in serum", "setting": "[7]", "value": "~12", "unit": "h"},
      {"measurement": "Kp", "setting": "[7]; cynomolgus monkey, in vivo, read-out: intracellular (PBL) levels as compared to serum", "value": 100}
    ]},
    {"smiles": "C[C@]12C=CC(=O)C=C1CC[C@@H]1[C@@H]2[C@@H](O)C[C@@]2(C)[C@H]1C[C@H]1O[C@@H](c3ccc(Cc4cccc(N)c4)cc3)O[C@]12C(=O)CO", "note": "[free J payload, reference compound]", "values": [
      {"measurement": "FKBP5 transcription in monocytes and B cells", "setting": "FKBP5 [6]; Experiment 1: 20 nM payload, 1 day", "value": "robust increase in FKBP5 transcription was observed with free J payload in both monocytes and B cells"}
    ]}
  ]
}
